Reference: a compilation of properties of binary mixtures (doi:10.1016/j.molliq.2017.08.019)

Assay: xn = mol fraction of the nth substance listed
Details: 100 kPa

CCCC[n+]1ccn(C)c1.O=S(=O)([O-])C(F)(F)F + CCCC[n+]1ccn(C)c1.F[P-](F)(F)(F)(F)F
viscosity [mPa·s]
Details	293.15 K	298.15 K	303.15 K	308.15 K	313.15 K	318.15 K	323.15 K	328.15 K
x2 = 0	90.8	76	–	51.7	42.11	35.18	30.02	26.6
x2 = 0.0005	90.9	76	–	51.8	–	35.2	–	26.61
x2 = 0.0006	90.9	76.1	63.6	51.8	–	–	–	26.61
x2 = 0.0007	90.9	–	63.6	51.8	42.14	35.2	30.03	26.61
x2 = 0.0009	90.9	76.1	63.7	51.8	–	35.21	30.04	26.61
x2 = 0.0018	91	–	63.7	51.8	42.17	–	30.05	26.62
x2 = 0.0061	–	76.5	64	52	42.34	35.36	30.15	26.71
x2 = 0.01	91.9	76.9	64.3	52.2	42.5	35.49	30.24	26.79
x2 = 0.0501	96.7	80.5	67.1	54.4	44.11	36.73	31.17	27.59
x2 = 0.0806	100.4	–	–	56.1	45.35	37.69	32.03	28.27
x2 = 0.1	102.9	85.3	–	57.1	46.2	38.32	32.53	28.7
x2 = 0.15	–	90.4	74.7	–	48.4	–	33.86	–
x2 = 0.1999	–	95.8	78.8	–	–	–	35.27	–
x2 = 0.3	132.1	107.5	87.8	69.7	55.5	–	–	33.41
x2 = 0.3999	149.7	120.7	97.7	77	60.9	49.6	41.49	36.06
x2 = 0.5002	169.7	135.6	108.9	85.2	–	54.1	45	38.95
x2 = 0.6	192.3	152.2	121.3	94.1	73.3	58.9	48.8	42.02
x2 = 0.7	–	170.9	135.1	104	80.4	64.2	52.9	45.35
x2 = 0.7995	247	191.8	150.3	114.8	–	70	57.4	48.9
x2 = 0.8997	280	215	167.5	126.9	96.7	–	–	52.8

CCCC[n+]1ccn(C)c1.F[P-](F)(F)(F)(F)F + CCCC[n+]1ccn(C)c1.O=S(=O)([O-])C(F)(F)F
x1 = 1
Details	viscosity [mPa·s]
293.15 K	337
298.15 K	257
303.15 K	197.6
308.15 K	148.3
313.15 K	112
323.15 K	71
328.15 K	59.7
